Earlier results, collected in US20240315993A1, “ANTIPARASITIC COMPOUNDS” (Intervet Inc., priority 2021, published 2024).

Experiments:
[1] = system: Beet Armyworm (Spodoptera exigua); details: Beet Armyworm second instar larvae, 128-well diet tray, 50 μg/cm^2, five to seven days, average of eight wells; cited from earlier work
[2] = system: Cabbage Looper (Trichoplusia ni); details: Cabbage Looper second instar larvae, 128-well diet tray, 50 μg/cm^2, five to seven days, average of eight wells; cited from earlier work
[3] = system: Yellow Fever Mosquito (Aedes aegypti); details: Aedes aegypti larvae about 1 day old, 96-well plate, scored after 3 days; cited from earlier work

| SMILES | Test A: Bioassay on BAW, percent mortality rating [1] | Test B: Bioassay on CL, percent mortality rating [2] | Test C: Bioassay on Yellow Fever Mosquito, mortality rating [3] |
| --- | --- | --- | --- |
| O=C(Nc1nc2ccccc2s1)c1cc(NC(=O)C2C(c3cc(Cl)cc(Cl)c3)C2(Cl)Cl)ccc1Cl (stereo not drawn) [c19] | A (50-100) | A (50-100) | B (More than 0 - Less than 80) |
| COc1c(Cl)cc(C2C(C(=O)Nc3ccc(Cl)c(C(=O)Nc4ccc(NC(C)=O)cc4)c3)C2(Cl)Cl)cc1Cl (stereo not drawn) [c20] | A (50-100) | A (50-100) | D (No activity noticed in this bioassay) |
| CNc1ccc(NC(=O)c2cc(NC(=O)C3C(c4cc(Cl)c(OC)c(Cl)c4)C3(Cl)Cl)ccc2Cl)cc1 (stereo not drawn) [c21] | A (50-100) | A (50-100) | D (No activity noticed in this bioassay) |
| O=C(Nc1nnn[nH]1)c1cc(NC(=O)[C@H]2[C@H](c3cc(Cl)cc(Cl)c3)C2(Cl)Cl)ccc1Cl [c22] | A (50-100) | A (50-100) | B (More than 0 - Less than 80) |
| O=C(Nc1ccc(-c2ncco2)cc1)c1cc(NC(=O)C2C(c3cc(Cl)cc(Cl)c3)C2(Cl)Cl)ccc1Cl (stereo not drawn) [c23] | A (50-100) | A (50-100) | D (No activity noticed in this bioassay) |
| Cc1ccc(-c2csc(NC(=O)c3cc(NC(=O)[C@H]4[C@H](c5cc(Cl)cc(Cl)c5)C4(Cl)Cl)ccc3Cl)n2)cc1 [c24] | A (50-100) | A (50-100) | D (No activity noticed in this bioassay) |
| O=C(Nc1c[nH]c(=O)[nH]c1=O)c1cc(NC(=O)[C@H]2[C@H](c3cc(Cl)cc(Cl)c3)C2(Cl)Cl)ccc1Cl [c25] | A (50-100) | A (50-100) | B (More than 0 - Less than 80) |
| O=C(Nc1nc2ccccc2o1)c1cc(NC(=O)C2C(c3cc(Cl)cc(Cl)c3)C2(Cl)Cl)ccc1Cl (stereo not drawn) [c26] | A (50-100) | A (50-100) | A (80-100) |
| O=C(Nc1ccc2ncoc2c1)c1cc(NC(=O)C2C(c3cc(Cl)cc(Cl)c3)C2(Cl)Cl)ccc1Cl (stereo not drawn) [c27] | A (50-100) | A (50-100) | A (80-100) |
| O=C(Nc1ccc2sccc2c1)c1cc(NC(=O)C2C(c3cc(Cl)cc(Cl)c3)C2(Cl)Cl)ccc1Cl (stereo not drawn) [c28] | A (50-100) | A (50-100) | A (80-100) |
| Nc1cccc(NC(=O)c2cc(NC(=O)C3C(c4cc(Cl)cc(Cl)c4)C3(Cl)Cl)ccc2Cl)c1 (stereo not drawn) [c29] | A (50-100) | A (50-100) | A (80-100) |
| CNc1cccc(NC(=O)c2cc(NC(=O)C3C(c4cc(Cl)cc(Cl)c4)C3(Cl)Cl)ccc2Cl)c1 (stereo not drawn) [c30] | A (50-100) | A (50-100) | A (80-100) |
| Cc1ccc(NC(=O)c2cc(NC(=O)C3C(c4cc(Cl)cc(Cl)c4)C3(Cl)Cl)ccc2Cl)cc1N (stereo not drawn) [c31] | A (50-100) | A (50-100) | B (More than 0 - Less than 80) |
| Cc1cc2cc(NC(=O)c3cc(NC(=O)C4C(c5cc(Cl)cc(Cl)c5)C4(Cl)Cl)ccc3Cl)ccc2[nH]1 (stereo not drawn) [c32] | A (50-100) | A (50-100) | A (80-100) |
| Cc1nc2cc(NC(=O)c3cc(NC(=O)C4C(c5cc(Cl)cc(Cl)c5)C4(Cl)Cl)ccc3Cl)ccc2s1 (stereo not drawn) [c33] | A (50-100) | A (50-100) | A (80-100) |
| O=C(Nc1ccc2[nH]cnc2c1)c1cc(NC(=O)C2C(c3cc(Cl)cc(Cl)c3)C2(Cl)Cl)ccc1Cl (stereo not drawn) [c34] | A (50-100) | A (50-100) | B (More than 0 - Less than 80) |
| CNc1ccc(NC(=O)c2cc(NC(=O)C3C(c4cc(Cl)cc(Cl)c4)C3(Cl)Cl)ccc2Cl)c(C)c1 (stereo not drawn) [c35] | A (50-100) | A (50-100) | A (80-100) |
